The subject of one data set is hydrilla. The note with it: Hydrilla verticillata (hydrilla), in vivo.
The subject of data set [1] is Eurasian watermilfoil. Description: 14C herbicide uptake study, shoot exposure. The class given is in vivo, Myriophyllum spicatum. From the text:
Plants were allowed to equilibrate overnight prior to treatment. […] Plants were separated into aboveground and belowground segments. […] After drying, plants were weighed and biomass recorded.

In data set [2] the test system is Eurasian watermilfoil. Description: 14C-triclopyr uptake study, root exposure. The class given is in vivo, Myriophyllum spicatum. Particulars: root exposure, 200,000 dpm 14C-triclopyr. Here is the method: Threshold absorption is reached within 12-24 hours for below ground tissue and near-maximum translocation to aboveground tissue is reached within 48 hours.
Prior to the experiment, plants were transplanted into glass jars filled with water plus a diluted growth media (Hoagland's Solution) and an eicosane wax plug was added to separate aboveground and belowground portions of the plant. Plants were allowed to equilibrate in this solution for 5 days. The root zone of each plant was treated with 200,000 dpm of 14C-triclopyr. Plants were then moved into 3 gallon tanks with other treated plants. Treatments were replicated 3 times and harvested at 12, 24, 48, 96, 192 HAT. Upon harvest, plants were separated into aboveground and belowground portions, dried, weighed and biomass recorded.

For the next data set, the system named is fish. The note with it: cited from earlier work.
A further data set relates to curly-leaf pondweed. Description: Greenhouse concentration and exposure trial on curly-leaf pondweed. It counts as in vivo, Potamogeton crispus. The source says:
Error bars are +1 standard deviation (n=3).
Relative to control of invasive curly-leaf pondweed (or CLP), greenhouse studies of penoxsulam concentration and exposure requirements to achieve control of this species have documented that exposure periods of 3-7 days to 3-6 ppb penoxsulam can provide effective control. FIG. 10 presents results of a representative greenhouse trial of penoxsulam treatment of CLP. 13-cm diameter pots were filled with potting soil amended with Osmocote slow release fertilizer (14-14-14). Four apical CLP tips, harvested from a culture at the SRTC, were planted into each pot. A one-inch sand cap was placed over the potting soil and submersed into 54 gallon tubs to allow for grow-out. At 19 days after planting, the five tubs were treated with 0, 3, 6, 12, or 24 ppb penoxsulam. Three pots per treatment were pulled out and placed into a common grow-out tank at 1, 3, 7, and 14 days after treatment (DAT). Once the plants were allowed to grow out for 28 DAT the plants were harvested to determine aboveground dry weight (48 hours at 70° C.).

The mark [3] stands for this setting: shoot exposure, triclopyr 1,000 ppb, FIG. 1A, hydrilla and Eurasian milfoil not distinguished in text.

“Also recorded” adds a separate entry of the source. Bounds are passed on as bounds.

Protocol for hydrilla: Eurasian watermilfoil or hydrilla apical fragments were collected from infested field sites and grown in topsoil cultures in greenhouse conditions until needed for uptake experiments. For uptake studies, 15 cm apical fragments were planted in glass jars in topsoil with a sand cap. Plants were allowed to grow in 30 L tanks until rooted (˜14 days). Prior to experiments plants were removed from water and agarose gel (1.5%) was added to each sand cap surface in each jar to avoid root exposure. Three plants of each species were then placed in 4 L plastic containers containing 3 L of dechlorinated tap water. Plants were allowed to equilibrate overnight prior to treatment. During the study, plants were maintained at room temperature (25° C.) under grow lights. Six containers were treated for each experiment using the following aboveground (i.e., above gel layer and into shoot section) treatments of ^14C-radiolabeled herbicide: Fluridone—10 ppb, Penoxsulam—10 ppb, Triclopyr—1,000 ppb (10 ppb ^14C, remainder ‘cold’ material). All radiolabeled dosing of 10 ppb equated to 222,000 DPM of 14C herbicide. The selected total herbicide rates corresponded to typical use rates for these three aquatic herbicides. […] After drying, plants were weighed and biomass recorded. Plants were then burned using a biological sample oxidizer and radioactivity quantified using liquid scintillation spectroscopy (LSS). […]

Consider `O=C(O)COc1nc(Cl)c(Cl)cc1Cl` [triclopyr, 3,5,6-trichloro-2-pyridyloxyacetic acid], for which the “time to maximum uptake” value with hydrilla is at most 96 h. The “time to maximum uptake” value with Eurasian watermilfoil [1] (Myriophyllum spicatum (Eurasian watermilfoil), in vivo) is at most 96 h. The “dose-corrected maximum uptake versus fluridone and penoxsulam” value in the data set with Eurasian watermilfoil [1] (shoot exposure, Eurasian milfoil, FIG. 1B) is recorded as “Greater dose-corrected uptake; also recorded: much greater on a dose-corrected basis”. In the data set on Eurasian watermilfoil [1] (setting [3]), the “time to threshold levels in aboveground tissues” value is 48 to 96 h and the “time to threshold levels in belowground tissues” value is 6 to 12 h. Further, in the data set with Eurasian watermilfoil [2], the “time to near-maximum translocation to aboveground tissue” value was at most 48 h and the “time to threshold uptake in belowground tissue” value lay within 12 to 24 h.
With `CNC.O=C(O)COc1ccc(Cl)cc1Cl` [2,4-d dimethylamine salt], the “toxicity to creatures such as fish versus butoxyethyl ester of 2,4-d” value with fish (US EPA 2,4-D Re-Registration Eligibility Decision 2005) was “substantially less toxic”.
For the molecule `CCN(CC)CC.O=C(O)COc1nc(Cl)c(Cl)cc1Cl` [Triclopyr triethylamine], the “toxicity to creatures such as fish versus butoxyethyl ester of triclopyr” value with fish (in vivo) was “substantially less toxic”.
For `COc1cnc(OC)n2nc(NS(=O)(=O)c3c(OCC(F)F)cccc3C(F)(F)F)nc12` [penoxsulam, 2-(2,2-difluoroethoxy)-6-(trifluoromethyl)-N-(5,8-dimethoxy[1,2,4]triazolo-[1,5c]pyrimidin-2-yl)-benzenesulfonamide], the “exposure period providing effective control” value with curly-leaf pondweed (3-6 ppb penoxsulam) was in the range of 3 to 7 days. Besides, the “penoxsulam concentration providing effective control” value in the data set with curly-leaf pondweed (exposure periods of 3-7 days) is reported as 3-6 ppb.

The record behind these values is patent publication US9137987B2, “Moderated release aquatic herbicide formulations” (SePro Corporation, priority 2011, dated 2015).
